Assay results published in US20170035847A1, “COMPOSITIONS AND METHODS FOR TREATING INFLAMMATION-ASSOCIATED DISORDERS OF THE GASTROINTESTINAL TRACT” (TherapyX, Inc., priority 2015, published 2017).
One block for each molecule: values may come before it.

How the values were obtained:
[1] = system: DSS-induced colitis in C57Black6 mice; assay: Dextran sodium sulphate-induced colitis; assay type: in vivo, mouse
Source text: Animals: Mice 6-8-weeks old (C57Black6 mice [males: n=6; females: n=6; 12 per group]) were purchased from Harlan Nossan, San Pietro al Natisone, Udine, Italy, and housed in a vivarium under pathogen-free conditions at the Department of Biomedical Sciences in the School of Medicine at the University of Catania [Catania, Italy]. The mice were kept under standard laboratory conditions with free access to food and water. They were allowed to adapt for 1 week before starting the study. The care and use of laboratory animals was in accordance with a University of Catania IACUC-approved animal use protocol.
Colitis was induced with 3% dextran sodium sulphate [50 kDa; Sigma-Aldrich] in drinking water for 4 days. The first treatment was given 24 h before induction of colitis [Day −1] and continued every other day for 6 days.
Disease score, SAA levels and histological analysis were performed as above.
To more broadly test the ability of oral TGFβ/ATRA-loaded microspheres to ameliorate IBD, a second model, the DSS-induced colitis model, was employed. Acute colitis was induced in C57Black6 mice [equal numbers of males and females, […]] with 3% DSS[50 kDa] in drinking water for 4 days. […] Mice were monitored daily for overall disease score and weight loss. At the end of 7 days, animals were sacrificed, sera taken and colons harvested, weighed, and measured on Day 7 [24 h after final treatment]. […] SAA levels, colon weight-to-length ratios, and histology scores determined. […] Mice were sacrificed 7 days after first treatment and levels of SAA determined [FIG. 10C]. […] The colons of sacrificed mice were also analyzed for colon weight-to-length ratio [FIG. 10D]. […] Next, ascending, transverse, and descending colon from naïve C57Black6 [no disease], untreated, TGFβ/ATRA-treated, and control [fed blank particles] mice were fixed in 10% formalin, embedded in paraffin, sectioned [5 μm] and stained with H & E. Five randomly-selected sections from each mouse were scored [Table 2] for disease severity. […]

in vivo = conditions: rat, iv
Experimental: In addition to the studies discussed above a bioavailability and pharmacokinetic study of TGFβ and ATRA was conducted following a single oral administration of PIN®-encapsulated TGFβ and ATRA in male rats, when compared to intravenous administration.

Molecule: O=C(O)c1cc(/N=N/c2ccc(S(=O)(=O)Nc3ccccn3)cc2)ccc1O [sulphasalazine]
- SAA levels, difference to no treatment ([1]; Day 7, TGFβ/ATRA 10 and 20 μg, sulphasalazine 50 mg/kg daily): significant
- colon weight-to-length ratio ([1]; Day 7, control groups almost 40 mg/cm, p<0.01): 35 mg/cm
- weight loss ([1]; TGFβ/ATRA 10 and 20 μg every other day, sulphasalazine 50 mg/kg daily oral for 7 days): neither sulphasalazine nor TGFβ/ATRA treatment was able to reduce weight loss

Molecule: TGFβ: soluble unencapsulated protein, transforming growth factor β; human recombinant TGFβ (Peprotech)
- Area under the curve [AUC] (in vivo; 0.04 mg/kg): 10 ng·h/mL
- t1/2 (in vivo; 0.04 mg/kg): 5 min

- AUC (in vivo; male, 1.6 mg/kg): 3500 ng·h/mL
- half-life (in vivo; male, 1.6 mg/kg): 34 min
Molecule: CC1=C(/C=C/C(C)=C/C=C/C(C)=C/C(=O)O)C(C)(C)CCC1 [ATRA, all-trans retinoic acid]
